Reference: patent US20070142396A1, “Treatment of pain with 1-[3-[4-(3-chlorophenyl)-1-piperazinyl]propyl]-5-methoxy-3,4-dihydro-2(1H)-quinolone or salt thereof” (Vela Pharmaceuticals, Inc., priority 2005, published 2007)

Test system: rats with spinal nerve ligature (Chung neuropathic pain model)
Assay: Chung spinal nerve ligation (L5 and L6) neuropathic pain model, thermal stimulation (Example 2)
Format: in vivo, rat
Conditions: for Paw Withdrawal Latency (s) Lesioned Paw / Paw Withdrawal Latency (s) Non-lesioned Paw: hypersensitivity test after 8 days of twice daily administration
From the text: The Chung neuropathic pain model (Kim and Chung, Pain, 50: 355-363, 1992), employs spinal nerve ligation (SNL) in a rat. Tight ligature of spinal nerves in a rat is associated with hyperalgesia, allodynia and spontaneous pain. Antihyperalgesics reduce these chronic signs of pain hypersensitivity. Thus, the Chung model permits testing of the antihyperalgesic activity of compounds in rats with neuropathic pain. The Chung model constitutes a model for peripheral neuropathic pain in humans, and was employed as follows.
Male Rj: Wistar (Han) rats, weighing 264-369 g at the beginning of the experiment, were obtained from Elevage Janvier, 53940 Le Genest-Saint-Isle, France. The rats were acclimatized to laboratory conditions for at least 5 days before the surgery phase of the experiment. The rats were housed in groups of five in macrolon cages (41×25×14 cm) on wood litter (Litalabo—SPPS, 95100 Argenteuil, France) with free access to food (code 113—SAFE, 91360 Epinay-sur-Orge, France) and water until tested. The animal houses were maintained under artificial lighting (12 hours) between 7:00 AM and 7:00 PM in a controlled ambient temperature of 21±3° C., and with relative humidity maintained at 40-70%.
Rats (264-369 g) were anesthetized with sodium pentobarbital (50 mg/kg i.p.), and an incision at the L4-S2 level was made to expose the left L5 and L6 spinal nerves. A ligature was tied tightly around each nerve. The wound was then sutured. The rats received an i.m. injection of 50,000 IU penicillin G and were allowed to recover. At least 2 weeks after the surgery, when the chronic state was fully installed, rats were submitted consecutively to tactile and thermal stimulation of both the non-lesioned and the lesioned hindpaws.
Doses of OPC-14523 were prepared in stock solutions (weight per volume, W/V), then in dilutions (volume per volume, V/V), as appropriate. The compound was dispersed in 0.5% tragacanth in distilled water. Morphine was dissolved in physiological saline as a reference standard for treatment of pain. The solutions for the test and reference substances were prepared fresh on the day of the experiment.
The vehicle, OPC-14523, and reference (morphine) compound were each administered in a volume of 5 ml/kg body weight. The doses of OPC-14523 were expressed in mg of substance per kg body weight and administered orally (p.o.). The vehicle control was also administered orally. The dose of morphine was expressed in mg of hydrochloride salt per kg body weight and administered i.p.
Each animal was tested at 30 minutes, 1 hour, 2 hours and 4 hours after the administration of a substance. Testing occurred in the morning.
To evaluate chronic drug administration and hypersensitivity induction, animals received a second substance treatment in the afternoon, after acute testing. The animals then received twice-daily substance treatment for an additional 9 days. To test for induction of hypersensitivity, the animals were tested, on the ninth day, 30 minutes before the first substance administration in the morning. The effect of chronic administration was tested on the tenth day 30 minutes, 1 hour, 2 hours and 4 hours after the administration of the substance in the morning.
An apparatus (Ugo Basile, Product reference: 7371, Comerio, Italy) consisted of six individual Plexiglas® boxes (17×11×14 cm) placed upon an elevated glass floor. A rat was placed in the box and left free to habituate for 10 minutes. Then, a mobile infrared radiant source was focused under the non-lesioned and lesioned hindpaws. The paw-withdrawal latencies were automatically recorded. Paw withdrawal interrupts the reflected radiation and switches off the counter and the light source. In order to prevent tissue damage, the test was terminated after 45 seconds if no reaction was noted.
Prior to receiving drug treatment, all animals were submitted to tactile stimulation and assigned to treatment groups, matched on the basis of their pain response. […]

COc1cccc2c1CCC(=O)N2CCCN1CCN(c2cccc(Cl)c2)CC1 [OPC-14523, 1-[3-[4-(3-chlorophenyl)-1-piperazinyl]propyl]-5-methoxy-3,4-dihydro-2(1H)-quinolone]
change of paw-withdrawal latency vs vehicle (acute, 10 mg/kg p.o., 30 minutes, NS): −57% | change of paw-withdrawal latency vs vehicle (acute, 10 mg/kg p.o., lesioned paw, 4 hours): +190% | change of paw-withdrawal latency vs vehicle (acute, 30 mg/kg p.o., lesioned paw, 4 hours): 259% | change of paw-withdrawal latency vs vehicle (acute, 100 mg/kg p.o., lesioned paw, 4 hours): 270% | change of paw-withdrawal latency vs vehicle (acute, 100 mg/kg p.o., non-lesioned paw, p<0.05): −27% | change of paw-withdrawal latency vs vehicle (chronic, 30 mg/kg, lesioned paw, 4 hours, p<0.05): +62% | effect on paw-withdrawal latency (chronic, non-lesioned paw): no effect | Paw Withdrawal Latency (s) Lesioned Paw (10 mg/kg p.o.): 4.5 (p < 0.01) s | Paw Withdrawal Latency (s) Non-lesioned Paw (10 mg/kg p.o.): 43.7 (NS) s | Paw Withdrawal Latency (s) Lesioned Paw (30 mg/kg p.o.): 19.9 (NS) s | Paw Withdrawal Latency (s) Non-lesioned Paw (30 mg/kg p.o.): 37 (NS) s | Paw Withdrawal Latency (s) Lesioned Paw (100 mg/kg p.o.): 22.3 (NS) s | Paw Withdrawal Latency (s) Non-lesioned Paw (100 mg/kg p.o.): 39.1 (NS) s | effect on paw-withdrawal latency vs vehicle control (hypersensitivity test, lesioned paw at other doses, non-lesioned paw at any dose): No effects | change of paw-withdrawal latency vs vehicle (hypersensitivity test, repeated treatment 10 mg/kg p.o., lesioned paw, p<0.01): −67%
